The text below walks through data of patent US9205073B2, “Method for treating virus infection using derivative of aniline” (CHINA MEDICAL UNIVERSITY, priority 2014, dated 2015).

Broadly, the melting point is the temperature, or range, at which the solid turns liquid.

The compound `CCOC(=O)C1=C(Nc2cccc(O)c2)OCC1=O` showed a melting point of 210 to 211 °C. As for `CCOC(=O)C1=C(Nc2cccc(Cl)c2)OCC1=O`, the melting point turned out to be 159.5 °C. Consider `CCOC(=O)C1=C(Nc2cc(OC)cc(OC)c2)OCC1=O`, for which the melting point is 145.6 °C. The result for `CCOC(=O)C1=C(Nc2ccccc2)OCC1=O` reads 115 to 116 °C.
